Data on two molecules can be found in patent US11312715B2, “Fused ring derivative as A2A receptor inhibitor” (CSTONE PHARMACEUTICALS (SUZHOU) CO., LTD., priority 2017, dated 2022).

Where a name gives a salt, the structure may show the parent alone. Read-outs that look alike come from different tables or passages of the source.

Data set [1] in a line: PK test of in vivo efficacy: plasma and tumor tissue drug concentration on day 20 of the CT26 study. To be noted: mouse; for concentration at 1 h / concentration at 4 h / Kp at 4 h / Kp at 1 h: oral; for concentration at 1 h / Kp at 1 h: time point 1 h; for concentration at 1 h / concentration at 4 h: tumor tissue; for concentration at 4 h / Kp at 4 h: time point 4 h; for AUC(0-t) / Cmax / Tmax / half-life: plasma, po, day 20; for half-life: read-out: T½ (converted); for Kp at 4 h / Kp at 1 h: tumor tissue / plasma, read-out: T/P* Ratio (tumor tissue / plasma drug concentration). Further details: species or system BALB/C mice. The method, then:
The experiment was conducted on the basis of experimental example 3, on the 20th day after administration, blood samples and tissues were collected from each group at different time points (0 h, 0.25 h, 0.5 h, 1 h, 2 h, 4 h, 8 h and 24 h) after administration.

The test system of data set [2] is mouse colon cancer CT26 cells. Briefly: In vivo pharmacodynamic test, CT26 subcutaneous tumor model, alone or combined with CS1003. Further details: species or system BALB/C mice. The method, then: Experimental materials: BALB/C mice (female); mouse colon cancer CT26 cells (Typical Culture Preservation Commission cell bank, Chinese Academy of Sciences) were cultured in vitro in monolayer with RPMI-1640 medium containing 10% fetal bovine serum in a 37° C., 5% CO2 incubator. Trypsin-EDTA was used for routine digestion and passage. When the cells were in exponential growth phase and the saturation was 80%-90%, the cells were collected and counted.
Compound preparation: Embodiment 19 was weighted and added into the menstruum (10% PEG400+90% (10% Cremophor aqueous solution)) to prepare samples of 2.5 mg/mL, 5 mg/mL and 10 mg/mL respectively. 72 μL CS1003 (PD-1 antibody) solution (25 mg/mL) was taken and 1.728 mL Dulbecco's phosphate buffer (DPBS) was added to prepare a 1 mg/mL solution, then 16.2 mL DPBS was added to prepare a 0.1 mg/mL clear solution.
Experimental operation: the cells were resuspended in Dulbecco's phosphate buffer at a density of 3×10^6 cells/mL. 0.1 mL DPBS (containing 3×10^5 CT26 cells) was subcutaneously inoculated on the right back of each mouse. On the day of inoculation, the mice were randomly divided into groups with 9 mice each group according to the weight of the mice, then administration was started and continued for 20 days. During the whole experiment, the animals were weighed and the animal's health was monitored every day, in case of any special situation, the person in charge of the relevant project would be informed in time and the corresponding records would be made. Tumor diameter was measured twice a week with a vernier caliper. The calculation formula of the tumor volume was: V=0.5×a×b^2, wherein a and b represent the long and short diameters of the tumor respectively.
The antitumor effect of the compounds was evaluated by GI (%) or relative tumor proliferation rate T/C (%). Relative tumor proliferation rate T/C (%)=Vt/VC×100% (Vt: average tumor volume of treatment group; Vc: average tumor volume of negative control group). Vt and VC were the data on the same day. GI (%), tumor inhibition rate. GI (%)=1−Vt/VC×100%.
Statistical analysis was conducted using SPSS software based on the relative tumor volume and tumor weight at the end of the experiment. […] P<0.05 was considered as significant difference.

Setting [3] is: BALB/C, 50 mg/kg, Group 7, 50 mpk twice a day alone.
The mark [4] stands for this setting: BALB/C, 100 mg/kg, Group 3, 100 mpk alone.
[5] abbreviates: BALB/C, 25 mg/kg, Group 4: 25 mg/kg once a day PO + CS1003 1 mg/kg.
[6] abbreviates: BALB/C, 50 mg/kg, Group 5: 50 mg/kg once a day PO + CS1003 1 mg/kg.
Where [7] appears, read: BALB/C, 50 mg/kg, Group 7: 50 mg/kg twice a day PO alone.
The mark [8] stands for this setting: BALB/C, 50 mg/kg, Group 8: 50 mg/kg twice a day PO + CS1003 1 mg/kg.
The mark [9] stands for this setting: BALB/C, 100 mg/kg, Group 3: 100 mg/kg once a day PO alone.
Setting [10] is: BALB/C, 100 mg/kg, Group 6: 100 mg/kg once a day PO + CS1003 1 mg/kg.
Setting [11] is: BALB/c, 50 mpk, Group 5, 50 mpk once a day + CS1003.
The mark [12] stands for this setting: BALB/c, 100 mpk, Group 3, 100 mpk alone.
[13] abbreviates: BALB/c, 100 mpk, Group 6, 100 mpk + CS1003.

The AUC(0-t) is the area under the concentration-time curve up to a stated or last time point. What is called Cmax is the maximum level reached in the sampled fluid or tissue. Usually Tmax stands for the time from dosing to the highest level. As to `Nc1nc(-c2ccc(F)cc2)c(-c2ccc3ncnn3c2)c2nccnc12` [Embodiment 6 hydrochloride], the results for the concentration at 1 h in data set [1] (setting [3]) and in data set [1] (setting [4]) were 3.69 µM and 17.5 µM, respectively. The concentration at 4 h came to 0.901 µM in data set [1] (setting [3]) and 10.6 µM in data set [1] (setting [4]). In addition, the area under the curve AUC(0-t) was determined as 23.5 µM·h in data set [1] (setting [5]); 70.6 µM·h in data set [1] (setting [6]); 42 µM·h in data set [1] (setting [7]); 77.9 µM·h in data set [1] (setting [8]); 145 µM·h in data set [1] (setting [9]); 125 µM·h in data set [1] (setting [10]). The Cmax in data set [1] (setting [5]) was 32.2 µM; in data set [1] (setting [6]) it was 57.2 µM; in data set [1] (setting [7]) it was 30.1 µM; in data set [1] (setting [8]) it was 47.1 µM; in data set [1] (setting [9]), 114 µM; in data set [1] (setting [10]), 132 µM. For the same molecule, the Tmax in data set [1] (setting [5]) was 30 min; in data set [1] (setting [6]), 15 min; in data set [1] (setting [7]), 30 min; in data set [1] (setting [8]), 30 min; in data set [1] (setting [9]), 15 min; in data set [1] (setting [10]), 15 min. Besides, the half-life was 65.4 min in data set [1] (setting [5]); 63 min in data set [1] (setting [6]); 95.4 min in data set [1] (setting [8]); 48.6 min in data set [1] (setting [9]); 39.3 min in data set [1] (setting [10]). Besides, the Kp at 4 h turned out to be 9.8 in data set [1] (setting [3]); 0.9 in data set [1] (BALB/c, 25 mpk, Group 4, 25 mpk + CS1003); 1.8 in data set [1] (setting [11]); 36 in data set [1] (BALB/c, 50 mpk, Group 8, 50 mpk twice a day + CS1003); 0.9 in data set [1] (setting [12]); 4.2 in data set [1] (setting [13]). Besides, the Kp at 1 h in data set [1] (setting [11]) amounted to 0.4; in data set [1] (BALB/c, 50 mpk, Group 7, 50 mpk twice a day alone), 0.7; in data set [1] (setting [12]), 0.6; in data set [1] (setting [13]), 0.5. Besides, the tumor inhibition rate in data set [2] (25 mg/kg once a day combined with 1 mg/kg CS1003, day 20, p<0.001) worked out at 63.16%; in data set [2] (50 mg/kg once a day combined with 1 mg/kg CS1003, day 20, p<0.001) it was 70.90%; in data set [2] (50 mg/kg twice a day in combination with CS1003, day 20, P<0.001), 83.22%; in data set [2] (100 mg/kg once a day combined with 1 mg/kg CS1003, day 20, p<0.001) it was 72.48%. For the same molecule, the tumor volume in data set [2] (25 mg/kg once a day intragastric combined with 1 mg/kg CS1003, end of experiment (day 20)) is 312.06+80.17 mm^3; in data set [2] (50 mg/kg once a day intragastric combined with 1 mg/kg CS1003, end of experiment (day 20)), 246.48+62.57 mm^3; in data set [2] (100 mg/kg once a day intragastric combined with 1 mg/kg CS1003, end of experiment (day 20)), 233.10+59.55 mm^3. Further, in data set [2] (50 mg/kg twice a day intragastric in combination with CS1003, end of experiment (day 20)), the average tumor volume is listed as 142.17+40.30 mm^3.

B1: CS1003: full-length, fully humanized immunoglobulin G4 (IgG4) monoclonal antibody for PD-1 (antibody, chains of the INN, looked up, V domains shown)
VH: QVQLVQSGAEVKKPGSSVKVSCKASGFTFTTYYISWVRQAPGQGLEYLGYINMGSGGTNYNEKFKGRVTITADKSTSTAYMELSSLRSEDTAVYYCAIIGYFDYWGQGTMVTVSS
VL: DVVMTQSPLSLPVTLGQPASISCRSSQSLLDSDGGTYLYWFQQRPGQSPRRLIYLVSTLGSGVPDRFSGSGSGTDFTLKISRVEAEDVGVYYCMQLTHWPYTFGQGTKLEIK
Take B1: in data set [2] (CS1003 1 mg/kg intraperitoneal, Day 7, 10, 13, 16, 20th day after starting administration), the tumor volume was 487.34+109.07 mm^3. The tumor inhibition rate in data set [2] (CS1003 1 mg/kg intraperitoneal, Day 7, 10, 13, 16, 20th day, no significant difference vs control) is listed as 42.47%.
